Experimental data reported in patent US20240058375A1, “CO-FORMULATION OF POLYMYXINS FOR INHALATION” (priority 2021, published 2024).

Legend:
A549 cells [1] = experiment: Cell viability of A549 cells, polymyxin B with or without polyglutamic acid, propidium iodide imaging; format: cell-based, Human; conditions: 1.0 mM polymyxin B alone, 24 h
Method: (§1) Human lung epithelial cells (A549 cells) were obtained from the American Type Culture Collection (ATCC® CCL-185™, Manassas, VA, USA), grown and sub-cultured in Dulbecco's modified Eagle's medium (DMEM) supplemented with 10% fetal bovine serum (FBS). A549 cells (1×10^5 cells/mL, 12-well plate) were seeded in supplemented DMEM at 37° C. in a humidified atmosphere containing 5% CO2 until 70% confluency. All experiments were conducted in three replicates. Cells were treated with 1.0 mM polymyxin B in the presence and absence of polyaspartic acid (0.25, 1.0 and 5.0 mM); and cell viability were examined at 24 h with flow cytometry after staining with propidium iodide. The drug concentrations for different formulations were selected based on our previous results on polymyxin toxicity in human lung epithelial cells. ^18 To assess the protective effect of polyglutamic acid, A549 cells (0.5×10^5 cells/mL, 200 μL/well) were seeded on 96-well plates (#353072, Corning, USA) for overnight at 37° C. Cells were treated with 1.0 mM polymyxin B in the presence and absence of polyglutamic acid (2.5, 5.0 and 10.0 μM). Cell viability was determined at 24 h using propidium iodide staining using EVOS® FL Auto Imaging System (Invitrogen; Approximate fluorescence excitation/emission maxima: 535/617 nm). […] Three random fields containing at least 50 cells per treatment condition were analyzed.

A549 cells [2] = experiment: Cell viability of A549 cells, polymyxin B with or without polyaspartic acid, propidium iodide flow cytometry; format: cell-based, Human; conditions: 1.0 mM polymyxin B alone, 24 h
Method: as §1

A549 cells [3] = experiment: Mitochondrial membrane potential (TMRE) in A549 cells; format: cell-based, Human; conditions: 1.0 mM polymyxin B alone; untreated control 100%
Method: (§2) The attenuation of mitochondrial superoxide formation and loss of mitochondrial membrane potential caused by polymyxin B were determined. ^18 A549 cells (0.5×10^5 cells/mL) were grown on 8-well chamber slides ([…] polymer coverslip, ibidi, Germany) for overnight at 37° C. Cells were treated with 1.0 mM polymyxin B in the presence and absence of polyaspartic acid (0.25, 1.0 and 5.0 mM). To assess the formation of mitochondrial superoxide and loss of mitochondrial membrane potential MitoSOX Red dye (Invitrogen; excitation and emission wavelengths of 514 and 531 to 622 nm, respectively) and TMRE (Invitrogen; excitation and emission wavelengths of 561 and 568 to 690 nm, respectively) were employed, respectively. Nuclei were stained with Hoechst 33342 (Invitrogen; excitation and emission wavelengths of 405 and 410 to 551 nm, respectively) to allow cell counting. Fluorescence intensity was quantified by confocal laser scanning microscopy (Leica SP8 inverted microscope equipped with a 63× oil immersion objective). The average fluorescence intensity per cell for each treatment was calculated using ImageJ (45, 46). Three random fields containing at least 50 cells per treatment condition were analyzed and the TMRE fluorescence in untreated control cells was set as 100%.

Swiss Albino mice = experiment: In vivo pulmonary toxicity, lung histopathology with semiquantitative scoring (SQS)
Method: The animal study was approved by the Monash Animal Ethics Committee, Monash University (Victoria, Australia). All experiments were conducted in accordance with the Australian Code of Practice for the Care and Use of Animals for Scientific Purposes. Swiss Albino mice (female; age, 6 weeks; body weight, 20 to 25 g) were obtained from the Monash Animal Research Platform (Clayton, Victoria, Australia). […] Animals were housed individually in metabolic cages and had free access to food and water. Mice were intratracheally administered 10 mg/kg of polymyxin B, 120 mg/kg of polyaspartic acid and the combinations of polyaspartic acid with polymyxin B three times a day.
Histopathological examinations of lungs were performed to assess the pulmonary toxicity by polymyxin B. At 24 h following pulmonary administration, mice were humanely killed and lungs were harvested and fixed in formalin immediately. To avoid any potential artificial damage to the lung epithelium, bronchoalveolar lavage and cardiac puncture were not performed. A semiquantitative scoring (SQS) system was employed to quantify the extent of lung damages. ^20 Briefly, we used the following grades for the severity and nature of the histopathological changes in the lungs: grade 0, no changes or mild changes considered insignificant; grade 1, minimal lesions affecting 1 to 25% of the area; grade 2, multifocal lesions affecting 25 to 50% of the area; and grade 3, severe tissue changes affecting >50% of the area. The grades were given the following scores: grade 0, 0.1; grade 1, 1; grade 2, 4; and grade 3, 10. Percentages of damage across different levels of the lungs were given the following scores: <1%, 0; from 1 to <5%, 1; from 5 to <10%, 2; from 10 to <20%, 3; from 20 to <30%, 4; from 30 to <40%, 5; >40%, 6. The overall lung histology score was determined as the product of the grade and percent damage score. An SQS was assigned the following scores: SQS 0, no significant change; SQS+1, mild damage; SQS+2, mild to moderate damage; SQS+3, moderate damage; SQS+4, moderate to severe damage; and SQS+5, severe damage.

A549 cells [4] = experiment: Mitochondrial superoxide formation (MitoSOX Red) in A549 cells; format: cell-based, Human; conditions: 1.0 mM polymyxin B alone, 24 h
Method: as §2

[5] = intratracheal three times a day, 10 mg/kg polymyxin B and/or 120 mg/kg polyaspartic acid, lungs at 24 h

## polymyxin B sulfate
A549 cells [1]
  Cell viability: 51.7±5.2%
A549 cells [2]
  Cell viability: 36.7±5.1%
A549 cells [3]
  Mitochondrial membrane potential compared to the control: 49.5±7.2%
Swiss Albino mice; [5]
  Histological finding in lung: no macroscopic lesion but severe tissue injury
  SQS of lung damage (grade): +2 to +5
Swiss Albino mice; intratracheal three times a day, 10 mg/kg polymyxin B or 120 mg/kg polyaspartic acid, lungs at 24 h
  Lung area affected by tissue injury: 25-50%
Swiss Albino mice; mean±SD, 10 mg/kg polymyxin B alone or co-administered with 120 mg/kg polyaspartic acid
  Overall semi-quantitative score (SQS) of lung damage: 3.0±1.4
A549 cells [4]
  MitoSOX fluorescence intensity, higher compared to the control: > 200 fold
